Structures can show the parent of a compound that is named as a salt. Where two headings read alike, the source gives them in different places. Positions of bridges follow the written chain, without caps; N, C: chain ends. Non-standard residues stand in square brackets, D forms with d. Residues, ends and D or L forms follow the SMILES beside them. *: point of attachment. DOTA = O=C(O)CN1CCN(CC(=O)O)CCN(CC(=O)*)CCN(CC(=O)O)CC1; PEG10 = NCCOCCOCCOCCOCCOCCOCCOCCOCCOCCOCCC(=O)O; Trp(5-OH) = N[C@@H](Cc1c[nH]c2ccc(O)cc12)C(=O)O; NMePhe(4-F) = CN[C@@H](Cc1ccc(F)cc1)C(=O)O; NMehPhe = CN[C@@H](CCc1ccccc1)C(=O)O; Aad = N[C@@H](CCCC(=O)O)C(=O)O; Gly(cPr) = N[C@H](C(=O)O)C1CC1; aThr = C[C@H](O)[C@H](N)C(=O)O; NMeK = CN[C@@H](CCCCN)C(=O)O; NMeDap = CN[C@@H](CN)C(=O)O
Tests used:
Type in all cases: binding
human HER2 (23-652) [1] = target: T1, human HER2 (23-652) (Homo sapiens, UniProt P04626); experiment: TR-FRET competition assay for peptide potency, human HER2; design: towards human HER2 (23-652) and mouse HER2 (23-653); made in house; host or cells: mammalian cells; details: read-out: huHER2 TR-FRET IC50
Method: (§1) Both proteins containing a His-, Avi-tag and biotin in Nterminus, were expressed in mammalian cells and produced in house. […] Standard assay conditions consist of 20 uL total volume in white 384-well plates (Greiner), in 10 mM HEPES buffer containing 150 mM NaCl, 3 mM EDTA, 0.05% Tween20 and 1% final DMSO. […] The ratiometric FRET assay readout is calculated from the ratio of the raw data of the two distinct fluorescence signals measured in time resolved mode (fluorescence 665 nm/fluorescence 620 nm). IC50 values were calculated with the standard Novartis in-house assay data analysis software (Helios software application, Novartis Institutes for BioMedical Research, unpublished) using the methods described in Comput. Methods. Programs. Biomed. 2006, 82, 31-37 (regression algorithms for nonlinear dose-response curve fitting).

human HER2 (23-652) [2] = target: T1, human HER2 (23-652); experiment: Surface plasmon resonance (SPR) for assessment of peptide affinity, human HER2; design: towards human HER2 (23-652) and mouse HER2 (23-653); made in house; details: SPR, human HER2 extracellular domain, 25° C., 1:1 binding model; read-out: huHER2-SPR-ONC KD
Method: Each protein was immobilized either onto a SA sensorchip (Cytiva, BR-1005-31) or CM5 sensorchip (Cytiva, BR-1005-30) to a density of 800-2000 RU. […] For the assay setup the same conditions (flow rate, running buffer, peptide dilution) as described above were used. In a first step the Anti Fc IgG Ab (from Human Antibody Capture Kit, Ref. 29234600, Cytiva) was diluted into acetate pH 5.0 at 25 ug/mL and immobilized at a flow rate of 10 uL/min over 360 s to reach a density around 6000 RU. […] The peptides were tested with an association time of 280 s followed by a dissociation time of 3000 s at a flow rate of 30 uL/min. The regeneration was done using 3 M magnesium chloride regeneration solution as obtained with a contact time of 30 s at a flow rate of 10 uL/min. Curve fitting was performed using the BiacoreTM 8K evaluation software.

mouse HER2 (23-653) = mouse HER2 (23-653) (Mus musculus, UniProt P70424); experiment: TR-FRET competition assay for peptide potency, mouse HER2; design: mouse HER2 (23-653) using a Cy5 labeled peptide as a probe; made in house; host or cells: mammalian cells; details: TR-FRET competition with Cy5 labeled peptide probe, 0.1 nM mouse HER2, 24 h incubation; read-out: moHER2 TR-FRET IC50
Method: as §1

[3] = TR-FRET competition with Cy5 labeled peptide probe, 0.1 nM human HER2, 24 h incubation

Compound	IC50 (human HER2 (23-652) [1]; [3])	Kd (human HER2 (23-652) [2])	IC50 (mouse HER2 (23-653))	IC50 (human HER2 (23-652) [1])
CC(=O)NCCCC[C@H]1C(=O)N[C@@H](Cc2c[nH]c3ccc(O)cc23)C(=O)N[C@@H](Cc2c[nH]c3ccccc23)C(=O)N[C@@H](C2CC2)C(=O)N(C)[C@H](C(=O)N(C)[C@@H](Cc2ccc(F)cc2)C(=O)N[C@@H](CCCCNC(=O)CCC(C(=O)O)N2CCN(CC(=O)O)CCN(CC(=O)O)CC2)C(N)=O)CNC(=O)CCC[C@H](NC(C)=O)C(=O)N[C@@H](Cc2ccc(O)cc2)C(=O)N[C@@H](CO)C(=O)N(C)[C@@H](CCc2ccccc2)C(=O)N1C (single isomer, unassigned) [Example C34]	< 0.1 nM	< 0.1 nM	< 0.1 nM	–
CC(=O)NCCCC[C@H]1C(=O)N[C@@H](Cc2c[nH]c3ccc(O)cc23)C(=O)N[C@@H](Cc2c[nH]c3ccccc23)C(=O)N[C@@H]([C@H](C)O)C(=O)N(C)[C@H](C(=O)N(C)[C@@H](Cc2ccc(F)cc2)C(N)=O)CNC(=O)CCC[C@H](NC(C)=O)C(=O)N[C@@H](Cc2ccc(O)cc2)C(=O)N[C@@H](CO)C(=O)N(C)[C@@H](CCc2ccccc2)C(=O)N1C [Example A6, (3S,6S,9S,12S,15S,18S,21S,24S,27S)-9-((1H-indol-3-yl)methyl)-27-acetamido-15-(4-acetamidobutyl)-N-((S)-1-amino-3-(4-fluorophenyl)-1-oxopropan-2-yl)-12-((5-hydroxy-1H-indol-3-yl)methyl)-24-(4-hydroxybenzyl)-6-((S)-1-hydroxyethyl)-21-(hydroxymethyl)-N,4,16,19-tetramethyl-5,8,11,14,17,20,23,26,31-nonaoxo-18-phenethyl-1,4,7,10,13,16,19,22,25-nonaazacyclohentriacontane-3-carboxamide] (Ac-[Aad]YS[NMehPhe][NMeK](Ac)[Trp(5-OH)]W[aThr][NMeDap][NMePhe(4-F)]-NH2; lactam 1-9)	–	–	–	1.3 nM
COCCOCCOCCOCCOCCOCCOCCOCCOCCOCCOCCOCCC(=O)N[C@H]1CCCC(=O)NC[C@@H](C(=O)N(C)[C@@H](Cc2ccc(F)cc2)C(=O)N[C@@H](CCCCN)C(N)=O)N(C)C(=O)[C@H](C2CC2)NC(=O)[C@H](Cc2c[nH]c3ccccc23)NC(=O)[C@H](Cc2c[nH]c3ccc(O)cc23)NC(=O)[C@H](CCCCNC(C)=O)N(C)C(=O)[C@H](CCc2ccccc2)N(C)C(=O)[C@H](CO)NC(=O)[C@H](Cc2ccc(O)cc2)NC1=O [Example A43, TFA salt]	–	0.2 nM	0.2 nM	< 0.1 nM
CC(=O)NCCCC[C@H]1C(=O)N[C@@H](Cc2c[nH]c3ccc(O)cc23)C(=O)N[C@@H](Cc2c[nH]c3ccccc23)C(=O)N[C@@H](C2CC2)C(=O)N(C)[C@H](C(=O)N(C)[C@@H](Cc2ccc(F)cc2)C(=O)N[C@@H](CCCCN)C(N)=O)CNC(=O)CCC[C@H](NC(C)=O)C(=O)N[C@H](Cc2ccc(O)cc2)C(=O)N[C@H](CO)C(=O)N(C)[C@@H](CCc2ccccc2)C(=O)N1C [Example A48, TFA salt]	–	–	> 10000 nM	8300 nM
CC(=O)NCCCC[C@H]1C(=O)N[C@@H](Cc2c[nH]c3ccc(O)cc23)C(=O)N[C@@H](Cc2c[nH]c3ccccc23)C(=O)N[C@@H](C2CC2)C(=O)N(C)[C@H](C(=O)N(C)[C@@H](Cc2ccc(F)cc2)C(=O)N[C@@H](CCCCNC(=O)CN2CCN(CC(=O)O)CCN(CC(=O)O)CC2)C(N)=O)CNC(=O)CCC[C@H](NC(C)=O)C(=O)N[C@@H](Cc2ccc(O)cc2)C(=O)N[C@@H](CO)C(=O)N(C)[C@@H](CCc2ccccc2)C(=O)N1C [Example B10]	–	< 0.1 nM	< 0.1 nM	< 0.1 nM
COCCOCCOCCOCCOCCOCCOCCOCCOCCOCCOCCOCCC(=O)N[C@H]1CCCC(=O)NC[C@@H](C(=O)N(C)[C@@H](Cc2ccc(F)cc2)C(=O)N[C@@H](CCCCNC(=O)CN2CCN(CC(=O)O)CCN(CC(=O)O)CC2)C(N)=O)N(C)C(=O)[C@H](C2CC2)NC(=O)[C@H](Cc2c[nH]c3ccccc23)NC(=O)[C@H](Cc2c[nH]c3ccc(O)cc23)NC(=O)[C@H](CCCCNC(C)=O)N(C)C(=O)[C@H](CCc2ccccc2)N(C)C(=O)[C@H](CO)NC(=O)[C@H](Cc2ccc(O)cc2)NC1=O [Example B11]	–	< 0.1 nM	0.2 nM	< 0.1 nM
CC(=O)NCCCC[C@H]1C(=O)N[C@@H](Cc2c[nH]c3ccc(O)cc23)C(=O)N[C@@H](Cc2c[nH]c3ccccc23)C(=O)N[C@@H](C2CC2)C(=O)N(C)[C@H](C(=O)N(C)[C@@H](Cc2ccc(F)cc2)C(=O)N[C@@H](CCCCNC(=O)CC[C@H](C(=O)O)N2CCN(CC(=O)O)CCN(CC(=O)O)CCN(CC(=O)O)CC2)C(N)=O)CNC(=O)CCC[C@H](NC(C)=O)C(=O)N[C@@H](Cc2ccc(O)cc2)C(=O)N[C@@H](CO)C(=O)N(C)[C@@H](CCc2ccccc2)C(=O)N1C [Example B12]	–	< 0.1 nM	< 0.1 nM	< 0.1 nM
CC(=O)NCCCC[C@H]1C(=O)N[C@@H](Cc2c[nH]c3ccc(O)cc23)C(=O)N[C@@H](Cc2c[nH]c3ccccc23)C(=O)N[C@@H](C2CC2)C(=O)N(C)[C@H](C(=O)N(C)[C@@H](Cc2ccc(F)cc2)C(=O)N[C@@H](CCCCNC(=O)CN2CCN(CC(=O)O)CCN(CC(=O)O)CCN(CC(=O)O)CC2)C(N)=O)CNC(=O)CCC[C@H](NC(C)=O)C(=O)N[C@H](Cc2ccc(O)cc2)C(=O)N[C@H](CO)C(=O)N(C)[C@@H](CCc2ccccc2)C(=O)N1C [Example C3]	> 9500 nM	–	> 10000 nM	–
CC(=O)NCCCC[C@H]1C(=O)N[C@@H](Cc2c[nH]c3ccc(O)cc23)C(=O)N[C@@H](Cc2c[nH]c3ccccc23)C(=O)N[C@@H](C2CC2)C(=O)N(C)[C@H](C(=O)N(C)[C@@H](Cc2ccc(F)cc2)C(N)=O)CNC(=O)CCC[C@H](NC(=O)CCOCCOCCOCCOCCOCCOCCOCCOCCOCCOCCNC(=O)CN2CCN(CC(=O)O)CCN(CC(=O)O)CCN(CC(=O)O)CC2)C(=O)N[C@@H](Cc2ccc(O)cc2)C(=O)N[C@@H](CO)C(=O)N(C)[C@@H](CCc2ccccc2)C(=O)N1C [Example C5] ({DOTA-PEG10}-[Aad]YS[NMehPhe][NMeK](Ac)[Trp(5-OH)]W[Gly(cPr)][NMeDap][NMePhe(4-F)]-NH2; lactam 1-9)	0.5 nM	0.7 nM	0.7 nM	–
CC(=O)NCCCC[C@H]1C(=O)N[C@@H](Cc2c[nH]c3ccc(O)cc23)C(=O)N[C@@H](Cc2c[nH]c3ccccc23)C(=O)N[C@@H](C2CC2)C(=O)N(C)[C@H](C(=O)N(C)[C@@H](Cc2ccc(F)cc2)C(N)=O)CNC(=O)CCC[C@H](NC(=O)CN2CCN(CC(=O)O)CCN(CC(=O)O)CCN(CC(=O)O)CC2)C(=O)N[C@@H](Cc2ccc(O)cc2)C(=O)N[C@@H](CO)C(=O)N(C)[C@@H](CCc2ccccc2)C(=O)N1C [Example C8] ({DOTA}-[Aad]YS[NMehPhe][NMeK](Ac)[Trp(5-OH)]W[Gly(cPr)][NMeDap][NMePhe(4-F)]-NH2; lactam 1-9)	2.1 nM	–	3.3 nM	–
CC(=O)N[C@H]1CCCC(=O)NC[C@@H](C(=O)N(C)[C@@H](Cc2ccc(F)cc2)C(=O)N[C@@H](CCCCNC(=O)CN2CCN(CC(=O)O)CCN(CC(=O)O)CCN(CC(=O)O)CC2)C(N)=O)N(C)C(=O)[C@H](C2CC2)NC(=O)[C@H](Cc2c[nH]c3ccccc23)NC(=O)[C@H](Cc2c[nH]c3ccc(O)cc23)NC(=O)[C@H](CCCCNC(=O)CO)N(C)C(=O)[C@H](CCc2ccccc2)N(C)C(=O)[C@H](CO)NC(=O)[C@H](Cc2ccc(O)cc2)NC1=O [Example C20]	0.1 nM	–	0.3 nM	–
CC(=O)NCCCC[C@H]1C(=O)N[C@@H](Cc2c[nH]c3ccc(O)cc23)C(=O)N[C@@H](C)C(=O)N[C@@H](C2CC2)C(=O)N(C)[C@H](C(=O)N(C)[C@@H](Cc2ccc(F)cc2)C(=O)N[C@@H](CCCCNC(=O)CN2CCN(CC(=O)O)CCN(CC(=O)O)CCN(CC(=O)O)CC2)C(N)=O)CNC(=O)CCC[C@H](NC(C)=O)C(=O)N[C@@H](Cc2ccc(O)cc2)C(=O)N[C@@H](CO)C(=O)N(C)[C@@H](CCc2ccccc2)C(=O)N1C [Example C32] (Ac-[Aad]YS[NMehPhe][NMeK](Ac)[Trp(5-OH)]A[Gly(cPr)][NMeDap][NMePhe(4-F)]K(DOTA)-NH2; lactam 1-9)	9810 nM	–	> 10000 nM	–
